Data taken from patent US20100173991A1, “METHOD FOR THE SYNTHESIS OF A-RING AROMATIZED ACETYL MINOCYCLINES” (priority 2007, published 2010).
Structures can show the parent of a compound that is named as a salt.

Assays:
[1] = tested on: Astroglia cells, non neoplastic embryonal astrocyte cell line of the rat, damaged by H2O2; assay type: cell-based; settings: 30 min pre-incubation with 1.0, 5.0 or 25.0 μM, then 1.0 or 3.0 mM H2O2 for 2 hours; microscopic assessment of cell shape and mitochondria
Description: The test of the cell-protecting properties of the substances produced in the inventive method was carried out, exemplarily for a pure form of pentaacetyl cyclin of Formula II, by means of an astrocyte damaging model. This model is used for the examination of neurodegenerative diseases caused by oxidative stress or for the test of cell-protecting substances that can avoid or reduce such damage. In the exemplary model astrocytes are damaged by hydrogen peroxide (H2O2) and afterwards the functionality and morphology of the cells and mitochondria are microscopically assessed. An overproduction of H2O2 as reactive oxygen species (ROS) is considered to be, amongst others, the cause for many neurodegenerative processes and diseases in the CNS, such as stroke, Alzheimer's disease Parkinson's disease, post-traumatic injuries of the brain and spinal cord. Astonishingly, already much lower doses of pentaacetyl cyclin of Formula II could considerably reduce the damage of the mitochondria compared to the comparative substance minocycline hydrochloride (Example 3 and FIG. 4).
Astroglia cells, i.e. non neoplastic embryonal astrocyte cell line of the rat [Chamaon, K., Kirches, E., Kanakis, D., Braeuninger, S., Dietzmann, K., and Mawrin, C. (2005). […] A Zeiss Axiophot fluorescence microscope with CCD camera (AxioCam MRc) was used for the visual inspection and documentation. […]

E. coli C 600 hfc strain = assay: Antibiotic effect in the agar diffusion test; assay type: cell-based; settings: filter paper sheets soaked with DMSO solutions 100 μM to 2.5 mM; LB agar, 37° C., 24 hours
Description: The test of the antibiotic effect of the pentaacetyl cyclin obtained in the inventive method was performed by using an E. coli strain (Embodiment 4). […] The liquid culture (cultivated in LB-Lennox-L-Broth-Base for 24 hours) of an E. coli suspension (150 μl) of the C 600 hfc strain was evenly distributed on LB agar (Lennox-L-Agar, Gibco) by means of a sterile Drigalski spatula. Afterwards, sterile filter paper sheets (diameter 5.3 mm) that have been soaked with sterile DMSO solutions and different concentrations (100 μM to 2.5 mM) of minocycline hydrochloride or pentaacetyl cyclin (Formula II) were placed on the breeding ground. After the incubation of the agars at 37° C. for 24 hours, the antibiotic activity of the substances was assessed on the basis of the diameters of the inhibiting areolas that become visible due to the missing opacification by bacteria.

Compound: CN(C)c1ccc(O)c2c1C[C@H]1C[C@H]3[C@H](N(C)C)C(O)=C(C(N)=O)C(=O)[C@@]3(O)C(O)=C1C2=O [minocycline hydrochloride, Minocycline hydrochloride, reference compound]
- concentration showing protective effect against H2O2-induced damage of cells/mitochondria [1]: 25 µM

Compound: CC(=O)NC(=O)c1c(OC(C)=O)c2c(c(N(C)C)c1OC(C)=O)CC1Cc3c(N(C)C)ccc(OC(C)=O)c3C(=O)C1=C2OC(C)=O (stereo not drawn) [pentaacetyl cyclin, A-ring aromatized pentaacetyl minocycline]
- concentration showing protective effect against H2O2-induced damage of cells/mitochondria [1]: 1.0 µM
- growth inhibition of E. coli (inhibiting areolas) (E. coli C 600 hfc strain): does not show any growth inhibition
